Reference: ChEMBL document CHEMBL1201862, “PubChem BioAssay data set” (2004)
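Cultured in 96-well plates, cells were exposed to test compound for 48 hours across five concentrations. GI50 = concentration required for 50% inhibition of growth.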 Calls of active or inactive are those of the source. Rule as the data show it: active = GI50 up to about 1.1 µM and inactive = higher.

Key:
Assay in all cases: NCI-60 cell line screen, 48 h
OVCAR-5 = system: OVCAR-5
PC-3 = system: PC-3
SF-268 = system: SF-268
LOX IMVI = system: LOX IMVI
A498 = system: A498
OVCAR-8 = system: OVCAR-8
UACC-62 = system: UACC-62
SK-MEL-28 = system: SK-MEL-28
NCI/ADR-RES = system: NCI/ADR-RES
UACC-257 = system: UACC-257
RPMI-8226 = system: RPMI-8226
SN12C = system: SN12C
IGROV-1 = system: IGROV-1
HCT-116 = system: HCT-116
OVCAR-3 = system: OVCAR-3
SNB-19 = system: SNB-19
CCRF-CEM = system: CCRF-CEM
Malme-3M = system: Malme-3M
EKVX = system: EKVX
K562 = system: K562

SMILES | GI50 (OVCAR-5) | GI50 (PC-3) | GI50 (SF-268) | GI50 (LOX IMVI) | GI50 (A498) | GI50 (OVCAR-8) | GI50 (UACC-62) | GI50 (SK-MEL-28) | GI50 (NCI/ADR-RES) | GI50 (UACC-257) | GI50 (RPMI-8226) | GI50 (SN12C) | GI50 (IGROV-1) | GI50 (HCT-116) | GI50 (OVCAR-3) | GI50 (SNB-19) | GI50 (CCRF-CEM) | GI50 (Malme-3M) | GI50 (EKVX) | GI50 (K562)
C[C@H](CCC1=NCCN1)[C@H]1CC[C@H]2[C@@H]3[C@H](O)C[C@@H]4C[C@H](O)CC[C@]4(C)[C@H]3CC[C@]12C | 14.5 µM (inactive) | 8.85 µM (inactive) | 13.2 µM (inactive) | 10.3 µM (inactive) | 13.3 µM (inactive) | 15.6 µM (inactive) | 11.4 µM (inactive) | 14.2 µM (inactive) | 28.8 µM (inactive) | 15 µM (inactive) | 14.7 µM (inactive) | 21.1 µM (inactive) | 11.7 µM (inactive) | 13.6 µM (inactive) | 13.7 µM (inactive) | 13.4 µM (inactive) | 12.7 µM (inactive) | 15.6 µM (inactive) | 17.9 µM (inactive) | 6.3 µM (inactive)
O=[N+]([O-])c1cc2ccc(N(CCO)CCO)nc2nc1N(CCO)CCO | > 100 µM (inactive) | > 100 µM (inactive) | > 100 µM (inactive) | > 100 µM (inactive) | > 100 µM (inactive) | > 100 µM (inactive) | > 100 µM (inactive) | > 100 µM (inactive) | > 100 µM (inactive) | > 100 µM (inactive) | > 100 µM (inactive) | > 100 µM (inactive) | > 100 µM (inactive) | > 100 µM (inactive) | > 100 µM (inactive) | > 100 µM (inactive) | > 100 µM (inactive) | > 100 µM (inactive) | > 100 µM (inactive) | > 100 µM (inactive)
Cc1ccc(-n2cnc(C(=N)C#N)c2N)cc1 | > 100 µM (inactive) | > 100 µM (inactive) | > 100 µM (inactive) | > 100 µM (inactive) | > 100 µM (inactive) | > 100 µM (inactive) | > 100 µM (inactive) | > 100 µM (inactive) | > 100 µM (inactive) | > 100 µM (inactive) | > 100 µM (inactive) | > 100 µM (inactive) | > 100 µM (inactive) | > 100 µM (inactive) | > 100 µM (inactive) | > 100 µM (inactive) | > 100 µM (inactive) | > 100 µM (inactive) | > 100 µM (inactive) | > 100 µM (inactive)
O=C(NCc1ccccc1)c1cc2ccccc2o/c1=N\c1cccc(C(F)(F)F)c1 | > 100 µM (inactive) | 44.3 µM (inactive) | > 100 µM (inactive) | 35.6 µM (inactive) | 85.1 µM (inactive) | 56.1 µM (inactive) | 52.2 µM (inactive) | > 100 µM (inactive) | 47.1 µM (inactive) | 29.5 µM (inactive) | 30.3 µM (inactive) | 29.3 µM (inactive) | 81.3 µM (inactive) | 55.6 µM (inactive) | 67.3 µM (inactive) | > 100 µM (inactive) | 45.1 µM (inactive) | 48.1 µM (inactive) | > 100 µM (inactive) | 36.5 µM (inactive)
O=C1C=C(Nc2nc(O)cc(C(=O)O)n2)c2ccccc2C1=O | > 100 µM (inactive) | > 100 µM (inactive) | > 100 µM (inactive) | > 100 µM (inactive) | > 100 µM (inactive) | > 100 µM (inactive) | > 100 µM (inactive) | > 100 µM (inactive) | > 100 µM (inactive) | > 100 µM (inactive) | > 100 µM (inactive) | > 100 µM (inactive) | > 100 µM (inactive) | > 100 µM (inactive) | > 100 µM (inactive) | > 100 µM (inactive) | > 100 µM (inactive) | > 100 µM (inactive) | > 100 µM (inactive) | > 100 µM (inactive)
O=[N+]([O-])c1ccccc1OCCOc1ccccc1[N+](=O)[O-] | > 100 µM (inactive) | > 100 µM (inactive) | > 100 µM (inactive) | > 100 µM (inactive) | > 100 µM (inactive) | 64.6 µM (inactive) | > 100 µM (inactive) | > 100 µM (inactive) | > 100 µM (inactive) | > 100 µM (inactive) | > 100 µM (inactive) | > 100 µM (inactive) | > 100 µM (inactive) | > 100 µM (inactive) | > 100 µM (inactive) | > 100 µM (inactive) | > 100 µM (inactive) | > 100 µM (inactive) | > 100 µM (inactive) | > 100 µM (inactive)
Cc1ccc(-c2nc(C)c(C(=O)Nc3ccc(Cl)cc3)s2)cc1 | 82.2 µM (inactive) | 44.8 µM (inactive) | 26.5 µM (inactive) | 31.1 µM (inactive) | 14.3 µM (inactive) | 18.8 µM (inactive) | 19.6 µM (inactive) | > 100 µM (inactive) | 29.2 µM (inactive) | > 100 µM (inactive) | > 100 µM (inactive) | 31.4 µM (inactive) | 29.2 µM (inactive) | 18.5 µM (inactive) | 24.1 µM (inactive) | 20.5 µM (inactive) | > 100 µM (inactive) | 36.4 µM (inactive) | 37.8 µM (inactive) | > 100 µM (inactive)
CCOC(=O)CCc1cccc2c1oc1c(CCNC(=O)OCC3c4ccccc4-c4ccccc43)cccc12 | > 100 µM (inactive) | 35.2 µM (inactive) | 25.2 µM (inactive) | 75.9 µM (inactive) | > 100 µM (inactive) | 24.9 µM (inactive) | 16.4 µM (inactive) | > 100 µM (inactive) | 58.6 µM (inactive) | 41.9 µM (inactive) | > 100 µM (inactive) | > 100 µM (inactive) | 21.3 µM (inactive) | 79.3 µM (inactive) | 49 µM (inactive) | 19.9 µM (inactive) | > 100 µM (inactive) | 18.1 µM (inactive) | > 100 µM (inactive) | > 100 µM (inactive)
C=C1C(=O)O[C@@H]2C[C@@]3(C)CCCC(=C)[C@@H]3C[C@H]12.C=C1C(=O)O[C@@H]2C[C@@]3(C)CCC[C@H](C)C3=C[C@H]12 | 4.82 µM (inactive) | 3.2 µM (inactive) | 2.55 µM (inactive) | 2.9 µM (inactive) | 1.71 µM (inactive) | 1.6 µM (inactive) | 2.39 µM (inactive) | 1.78 µM (inactive) | 1.96 µM (inactive) | 1.65 µM (inactive) | 1.12 µM (inactive) | 1.69 µM (inactive) | 2.72 µM (inactive) | 1.41 µM (inactive) | 1.61 µM (inactive) | 9.33 µM (inactive) | 1.51 µM (inactive) | 0.731 µM (active) | 4.78 µM (inactive) | 2.04 µM (inactive)
CCC1=CC2Cc3nc4cc(Cl)ccc4c(N)c3C(C1)C2 (stereo not given) | 5.62 µM (inactive) | 4.47 µM (inactive) | 4.62 µM (inactive) | 4.54 µM (inactive) | 4.86 µM (inactive) | 12.8 µM (inactive) | 6.04 µM (inactive) | 2.86 µM (inactive) | 8.3 µM (inactive) | 2.11 µM (inactive) | 2.03 µM (inactive) | 12.5 µM (inactive) | 2.72 µM (inactive) | 2.54 µM (inactive) | 7.29 µM (inactive) | 9.12 µM (inactive) | 3.35 µM (inactive) | 4.55 µM (inactive) | 3.18 µM (inactive) | 2.58 µM (inactive)
Nc1nc(OCC2CCCCC2)c2nc[nH]c2n1 | 13.6 µM (inactive) | 10.8 µM (inactive) | 11.2 µM (inactive) | 8.75 µM (inactive) | 13.7 µM (inactive) | 16.5 µM (inactive) | 12.6 µM (inactive) | 26.2 µM (inactive) | 28.6 µM (inactive) | 17.3 µM (inactive) | 11.1 µM (inactive) | 10.2 µM (inactive) | 5 µM (inactive) | 11.4 µM (inactive) | 9.25 µM (inactive) | 25.2 µM (inactive) | 11.2 µM (inactive) | 5.73 µM (inactive) | 19.4 µM (inactive) | 29.1 µM (inactive)
CC(C)=CCC[C@@H](C)c1c2nc3ccccc3sc-2c(C)c(=O)c1O | 16.7 µM (inactive) | 8.34 µM (inactive) | 3.99 µM (inactive) | 4.94 µM (inactive) | 9.84 µM (inactive) | 2.94 µM (inactive) | 4.99 µM (inactive) | 14.6 µM (inactive) | 2.05 µM (inactive) | 14.3 µM (inactive) | 4.11 µM (inactive) | 5.74 µM (inactive) | 3.44 µM (inactive) | 3.37 µM (inactive) | 9.35 µM (inactive) | 38.5 µM (inactive) | 2.67 µM (inactive) | 2.93 µM (inactive) | 7.62 µM (inactive) | 8.22 µM (inactive)
C/C1=C\[C@H](C)C[C@H](C)OC(=O)C[C@H](c2ccc(O)cc2)NC(=O)[C@@H](Cc2c(Br)[nH]c3ccccc23)N(C)C(=O)[C@H](C)NC(=O)[C@@H](C)C1 [JASPAMIDE] | 0.457 µM (active) | 0.0667 µM (active) | 0.139 µM (active) | 0.122 µM (active) | 0.0224 µM (active) | 0.381 µM (active) | 0.219 µM (active) | 0.124 µM (active) | 0.367 µM (active) | 0.11 µM (active) | 0.218 µM (active) | 0.361 µM (active) | 0.114 µM (active) | 0.196 µM (active) | 0.139 µM (active) | 0.213 µM (active) | 0.0209 µM (active) | 0.148 µM (active) | 0.275 µM (active) | 0.667 µM (active)
